# According to ChEMBL document CHEMBL1201862, “PubChem BioAssay data set” (2004):
# Activity calls are given as the source filed them.
# Legend:
# [1] = cells; assay type: functional, cell-based
# [2] = cells; assay type: functional, cell-based; remark: listed apart in the source
# [3] = target: T1, Fatty acid synthase (Homo sapiens, UniProt P49327); experiment: FAS thioesterase domain inhibitors, dose response, biochemical, endpoint fluorescence intensity, uHTS hits (AID 624327); assay type: functional;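 further: fluorescence from hydrolysis of an O-methyl fluorescein acyl ester substrate by the enzyme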
# [4] = target: T1, Fatty acid synthase; experiment: FAS thioesterase domain inhibitors, dose response, biochemical, kinetic fluorescence intensity (AID 624326); assay type: functional;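 further: rate of fluorescence rise from hydrolysis of a fluorogenic O-methyl fluorescein ester substrate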
# [5] = target: T2, Leucine aminopeptidase (Plasmodium falciparum 3D7, UniProt Q8IL11); experiment: P. falciparum M17LAP inhibitors, primary screen, biochemical, fluorogenic H-Leu-NHMec substrate, 1536-well (AID 1619); assay type: functional
# T2 sequence (Q8IL11 whole entry): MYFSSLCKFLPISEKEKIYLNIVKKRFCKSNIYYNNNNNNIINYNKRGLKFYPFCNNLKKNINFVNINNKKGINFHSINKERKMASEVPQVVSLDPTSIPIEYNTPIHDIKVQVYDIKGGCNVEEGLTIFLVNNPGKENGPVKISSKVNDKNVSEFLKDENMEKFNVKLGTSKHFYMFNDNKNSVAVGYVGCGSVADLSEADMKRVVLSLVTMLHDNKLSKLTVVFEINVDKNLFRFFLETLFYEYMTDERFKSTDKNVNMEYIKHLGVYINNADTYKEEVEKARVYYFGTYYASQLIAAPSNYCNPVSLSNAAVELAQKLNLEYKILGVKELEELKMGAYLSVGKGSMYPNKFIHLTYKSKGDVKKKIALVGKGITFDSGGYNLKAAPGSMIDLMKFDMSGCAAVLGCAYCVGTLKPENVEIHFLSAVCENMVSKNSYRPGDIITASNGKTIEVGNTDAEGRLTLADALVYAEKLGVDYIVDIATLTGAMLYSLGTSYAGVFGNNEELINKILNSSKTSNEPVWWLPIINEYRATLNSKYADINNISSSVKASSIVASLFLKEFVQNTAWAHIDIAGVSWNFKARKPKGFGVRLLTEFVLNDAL
# [6] = target: T3, Short transient receptor potential channel 4 (Mus musculus, UniProt Q9QUQ5); experiment: mouse TRPC4 channel inhibitors, dose response, cell-based, HEK293 TRPC4/mu-opioid, Fluo-4 calcium (AID 434942); assay type: functional;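 further: potency of inhibitors blocking the TRPC4 calcium response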
# T3 sequence (Q9QUQ5 whole entry): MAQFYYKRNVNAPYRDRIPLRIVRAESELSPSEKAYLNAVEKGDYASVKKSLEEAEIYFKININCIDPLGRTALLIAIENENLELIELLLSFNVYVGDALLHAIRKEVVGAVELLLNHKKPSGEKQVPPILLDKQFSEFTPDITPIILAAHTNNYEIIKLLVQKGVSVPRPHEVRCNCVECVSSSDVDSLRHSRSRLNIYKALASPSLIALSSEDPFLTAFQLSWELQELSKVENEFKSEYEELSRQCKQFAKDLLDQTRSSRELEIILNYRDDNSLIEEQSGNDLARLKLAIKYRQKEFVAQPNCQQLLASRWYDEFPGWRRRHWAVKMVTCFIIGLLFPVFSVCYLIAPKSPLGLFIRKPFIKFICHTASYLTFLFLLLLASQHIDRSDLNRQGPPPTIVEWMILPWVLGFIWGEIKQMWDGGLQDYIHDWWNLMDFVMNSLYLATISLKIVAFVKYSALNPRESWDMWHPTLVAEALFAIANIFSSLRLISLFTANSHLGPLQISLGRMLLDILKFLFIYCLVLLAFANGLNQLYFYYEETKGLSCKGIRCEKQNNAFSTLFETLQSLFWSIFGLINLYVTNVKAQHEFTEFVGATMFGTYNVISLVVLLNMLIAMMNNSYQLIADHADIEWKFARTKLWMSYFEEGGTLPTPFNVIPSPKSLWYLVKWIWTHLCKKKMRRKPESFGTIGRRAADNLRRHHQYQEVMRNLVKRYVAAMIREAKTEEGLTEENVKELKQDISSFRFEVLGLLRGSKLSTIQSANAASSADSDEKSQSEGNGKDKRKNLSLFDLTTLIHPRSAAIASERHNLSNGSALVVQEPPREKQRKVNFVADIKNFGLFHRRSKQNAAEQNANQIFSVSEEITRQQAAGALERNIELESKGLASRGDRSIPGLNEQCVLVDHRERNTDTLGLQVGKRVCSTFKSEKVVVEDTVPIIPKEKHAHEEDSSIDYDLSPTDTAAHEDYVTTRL
# [7] = system: P388/ADR; experiment: cells; assay type: functional; details: Mus musculus
# [8] = system: SN12K1; experiment: cells; assay type: functional; details: Homo sapiens
# [9] = system: P388; experiment: cells; assay type: functional; details: Mus musculus
# [10] = microbe, parasite or virus in culture; assay type: functional; details: Mycobacterium tuberculosis
# [11] = target: Cytochrome P450 2C19 (Homo sapiens, UniProt P33261); experiment: Cytochrome panel assay with activity outcomes. Panel member name: p450-cyp2c19 Compounds with AC50 equal or less than 10 uM are considered active; assay type: functional
# [12] = target: Cytochrome P450 2D6 (Homo sapiens, UniProt P10635);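 further: CYP2D6 member of a cytochrome P450 panel assay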
# [13] = target: T4, Aminopeptidase N (Plasmodium falciparum FcB1/Columbia, UniProt O96935); experiment: P. falciparum M1AAP inhibitors, biochemical, fluorogenic H-Leu-NHMec substrate, 1536-well (AID 1445); design: species or system Plasmodium falciparum 3D7, 3D7
# T4 sequence (O96935 whole entry): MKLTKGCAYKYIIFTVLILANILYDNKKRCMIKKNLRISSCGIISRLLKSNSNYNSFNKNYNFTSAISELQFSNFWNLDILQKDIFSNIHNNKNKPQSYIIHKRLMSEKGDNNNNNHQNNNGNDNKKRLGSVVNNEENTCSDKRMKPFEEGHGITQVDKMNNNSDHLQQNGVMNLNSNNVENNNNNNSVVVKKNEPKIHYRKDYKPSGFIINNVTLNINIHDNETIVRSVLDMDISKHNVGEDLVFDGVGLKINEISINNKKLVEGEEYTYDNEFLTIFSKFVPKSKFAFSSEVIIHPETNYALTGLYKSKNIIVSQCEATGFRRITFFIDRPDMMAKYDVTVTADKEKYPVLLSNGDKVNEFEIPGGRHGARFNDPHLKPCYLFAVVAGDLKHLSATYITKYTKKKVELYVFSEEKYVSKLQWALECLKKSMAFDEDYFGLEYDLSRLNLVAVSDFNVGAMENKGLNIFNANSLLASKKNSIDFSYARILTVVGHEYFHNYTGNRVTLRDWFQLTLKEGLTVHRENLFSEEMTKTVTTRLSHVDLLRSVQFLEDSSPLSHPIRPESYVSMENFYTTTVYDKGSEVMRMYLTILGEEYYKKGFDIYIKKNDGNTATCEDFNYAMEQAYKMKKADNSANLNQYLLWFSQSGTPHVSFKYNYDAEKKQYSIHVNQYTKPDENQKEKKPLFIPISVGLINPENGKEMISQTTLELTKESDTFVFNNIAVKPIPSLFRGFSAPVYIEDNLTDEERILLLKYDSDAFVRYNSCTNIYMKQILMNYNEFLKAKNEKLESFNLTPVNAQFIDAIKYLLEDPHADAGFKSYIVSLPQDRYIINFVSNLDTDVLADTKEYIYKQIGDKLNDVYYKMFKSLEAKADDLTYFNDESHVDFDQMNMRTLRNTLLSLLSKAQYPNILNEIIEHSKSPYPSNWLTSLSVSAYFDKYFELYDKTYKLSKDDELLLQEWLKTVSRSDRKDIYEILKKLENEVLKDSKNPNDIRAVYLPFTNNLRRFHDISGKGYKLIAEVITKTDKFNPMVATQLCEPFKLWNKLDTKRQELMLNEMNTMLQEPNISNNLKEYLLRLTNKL
# [14] = system: Streptococcus sp. 'group A'; experiment: growth inhibition of control SK(-) GAS strain, dose response, counter-screen for streptokinase expression inhibitor project, luminescence, kanamycin, BacTiterGlo, confirmation (AID 1900); assay type: functional, organism-based
# [15] = system: Streptococcus; experiment: Group A Streptococcus viability loss, dose response, counter-screen for streptokinase expression inhibitor project, luminescence, BacTiterGlo (AID 1915); assay type: functional, organism-based;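 further: potency for reduction of bacterial viability or growth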
# [16] = target: Heat shock protein HSP 90-alpha (Homo sapiens, UniProt P07900); assay type: functional, organism-based
# [17] = target: Cytochrome P450 3A4 (Homo sapiens, UniProt P08684);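 further: CYP3A4 tested as one member of a cytochrome P450 panel screen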
# Sequence of Cytochrome P450 3A4 (P08684 whole entry): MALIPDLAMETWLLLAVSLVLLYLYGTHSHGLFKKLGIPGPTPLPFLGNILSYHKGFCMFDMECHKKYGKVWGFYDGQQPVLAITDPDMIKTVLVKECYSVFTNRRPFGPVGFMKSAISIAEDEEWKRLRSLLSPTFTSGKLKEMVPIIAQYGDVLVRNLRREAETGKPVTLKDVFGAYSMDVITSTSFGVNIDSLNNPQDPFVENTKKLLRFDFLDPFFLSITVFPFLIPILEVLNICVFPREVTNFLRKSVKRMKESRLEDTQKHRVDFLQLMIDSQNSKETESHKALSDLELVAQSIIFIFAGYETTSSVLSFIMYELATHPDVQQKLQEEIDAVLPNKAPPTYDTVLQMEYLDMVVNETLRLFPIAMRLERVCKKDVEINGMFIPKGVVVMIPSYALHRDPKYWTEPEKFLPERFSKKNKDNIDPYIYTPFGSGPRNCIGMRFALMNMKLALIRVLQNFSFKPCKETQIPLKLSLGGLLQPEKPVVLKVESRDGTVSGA
# T1 sequence (P49327 whole entry, the tested form may be a part): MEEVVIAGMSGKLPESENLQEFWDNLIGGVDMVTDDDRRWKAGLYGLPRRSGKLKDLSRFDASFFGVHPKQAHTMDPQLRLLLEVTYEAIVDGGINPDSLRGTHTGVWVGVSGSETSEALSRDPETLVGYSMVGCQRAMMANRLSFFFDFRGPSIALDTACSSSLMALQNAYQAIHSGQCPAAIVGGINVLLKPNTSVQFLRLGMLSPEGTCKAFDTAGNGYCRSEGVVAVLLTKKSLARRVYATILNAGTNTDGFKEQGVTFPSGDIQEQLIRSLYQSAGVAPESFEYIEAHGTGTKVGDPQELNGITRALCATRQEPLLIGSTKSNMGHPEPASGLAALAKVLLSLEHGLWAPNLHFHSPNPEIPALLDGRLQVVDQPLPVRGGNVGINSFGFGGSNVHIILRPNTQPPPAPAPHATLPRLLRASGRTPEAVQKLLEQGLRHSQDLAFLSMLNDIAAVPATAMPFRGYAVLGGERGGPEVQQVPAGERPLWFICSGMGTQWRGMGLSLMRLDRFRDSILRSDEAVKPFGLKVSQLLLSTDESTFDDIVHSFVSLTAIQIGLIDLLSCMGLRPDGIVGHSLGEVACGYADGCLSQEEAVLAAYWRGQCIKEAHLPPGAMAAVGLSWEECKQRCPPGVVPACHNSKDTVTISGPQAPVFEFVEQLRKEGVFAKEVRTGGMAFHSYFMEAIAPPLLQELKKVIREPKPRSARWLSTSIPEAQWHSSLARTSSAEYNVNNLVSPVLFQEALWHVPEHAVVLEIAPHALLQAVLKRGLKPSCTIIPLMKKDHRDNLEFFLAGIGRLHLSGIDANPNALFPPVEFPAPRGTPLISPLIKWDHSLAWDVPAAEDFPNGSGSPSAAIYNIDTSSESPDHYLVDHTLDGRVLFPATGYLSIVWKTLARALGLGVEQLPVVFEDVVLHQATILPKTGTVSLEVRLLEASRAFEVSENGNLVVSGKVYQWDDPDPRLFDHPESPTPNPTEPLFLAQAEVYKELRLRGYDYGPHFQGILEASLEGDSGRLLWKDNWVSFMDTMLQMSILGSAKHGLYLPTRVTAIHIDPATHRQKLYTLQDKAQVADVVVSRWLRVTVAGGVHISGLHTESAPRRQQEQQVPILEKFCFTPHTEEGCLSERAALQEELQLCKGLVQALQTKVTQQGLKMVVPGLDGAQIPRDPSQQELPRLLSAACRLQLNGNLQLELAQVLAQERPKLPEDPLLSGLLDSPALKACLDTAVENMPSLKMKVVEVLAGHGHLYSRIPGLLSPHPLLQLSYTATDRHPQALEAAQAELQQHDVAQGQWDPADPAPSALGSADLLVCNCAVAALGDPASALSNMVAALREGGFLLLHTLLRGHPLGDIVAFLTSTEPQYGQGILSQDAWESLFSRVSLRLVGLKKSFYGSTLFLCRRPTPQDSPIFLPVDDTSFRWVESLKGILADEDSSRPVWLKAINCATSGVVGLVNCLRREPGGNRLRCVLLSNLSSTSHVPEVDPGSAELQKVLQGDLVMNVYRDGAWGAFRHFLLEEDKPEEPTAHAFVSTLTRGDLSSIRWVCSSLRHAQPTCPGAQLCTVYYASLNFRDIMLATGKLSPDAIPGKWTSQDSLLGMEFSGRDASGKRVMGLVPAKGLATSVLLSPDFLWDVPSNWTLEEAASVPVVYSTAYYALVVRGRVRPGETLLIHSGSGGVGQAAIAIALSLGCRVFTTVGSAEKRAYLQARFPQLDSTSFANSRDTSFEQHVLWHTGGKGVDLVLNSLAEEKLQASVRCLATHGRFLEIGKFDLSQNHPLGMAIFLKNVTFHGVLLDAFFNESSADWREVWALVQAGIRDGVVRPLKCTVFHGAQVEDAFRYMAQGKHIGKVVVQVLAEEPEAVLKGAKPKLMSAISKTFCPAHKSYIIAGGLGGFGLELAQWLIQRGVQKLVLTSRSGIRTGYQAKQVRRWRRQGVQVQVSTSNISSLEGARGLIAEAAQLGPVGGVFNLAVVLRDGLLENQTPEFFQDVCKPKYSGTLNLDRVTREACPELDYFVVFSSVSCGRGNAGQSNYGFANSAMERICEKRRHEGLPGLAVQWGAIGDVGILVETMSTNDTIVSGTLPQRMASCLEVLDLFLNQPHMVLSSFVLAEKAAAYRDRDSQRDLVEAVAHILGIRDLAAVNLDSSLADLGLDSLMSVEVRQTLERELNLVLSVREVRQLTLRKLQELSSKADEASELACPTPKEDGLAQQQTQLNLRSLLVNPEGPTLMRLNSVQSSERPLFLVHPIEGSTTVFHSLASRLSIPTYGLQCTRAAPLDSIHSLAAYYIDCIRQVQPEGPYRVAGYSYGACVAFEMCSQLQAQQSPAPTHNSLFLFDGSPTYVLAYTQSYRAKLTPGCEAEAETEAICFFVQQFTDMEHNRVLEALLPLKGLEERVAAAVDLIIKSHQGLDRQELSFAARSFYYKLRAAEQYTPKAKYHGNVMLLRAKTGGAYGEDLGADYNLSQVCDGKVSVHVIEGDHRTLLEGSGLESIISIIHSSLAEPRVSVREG
# Sequence of Cytochrome P450 2C19 (P33261 whole entry): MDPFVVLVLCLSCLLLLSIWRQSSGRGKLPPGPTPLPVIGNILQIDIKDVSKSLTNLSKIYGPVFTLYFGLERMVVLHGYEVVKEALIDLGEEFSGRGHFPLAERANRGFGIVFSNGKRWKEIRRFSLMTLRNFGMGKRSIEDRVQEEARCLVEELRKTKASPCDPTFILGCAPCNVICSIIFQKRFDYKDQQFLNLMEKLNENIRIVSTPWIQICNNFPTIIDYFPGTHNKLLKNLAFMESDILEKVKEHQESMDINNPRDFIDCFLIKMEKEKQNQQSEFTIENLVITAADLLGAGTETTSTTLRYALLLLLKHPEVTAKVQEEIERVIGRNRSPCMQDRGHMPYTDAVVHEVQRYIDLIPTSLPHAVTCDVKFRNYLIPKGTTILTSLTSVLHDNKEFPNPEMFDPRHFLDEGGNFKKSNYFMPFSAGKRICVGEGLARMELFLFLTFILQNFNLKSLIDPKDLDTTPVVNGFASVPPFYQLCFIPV
# Sequence of Cytochrome P450 2D6 (P10635 whole entry): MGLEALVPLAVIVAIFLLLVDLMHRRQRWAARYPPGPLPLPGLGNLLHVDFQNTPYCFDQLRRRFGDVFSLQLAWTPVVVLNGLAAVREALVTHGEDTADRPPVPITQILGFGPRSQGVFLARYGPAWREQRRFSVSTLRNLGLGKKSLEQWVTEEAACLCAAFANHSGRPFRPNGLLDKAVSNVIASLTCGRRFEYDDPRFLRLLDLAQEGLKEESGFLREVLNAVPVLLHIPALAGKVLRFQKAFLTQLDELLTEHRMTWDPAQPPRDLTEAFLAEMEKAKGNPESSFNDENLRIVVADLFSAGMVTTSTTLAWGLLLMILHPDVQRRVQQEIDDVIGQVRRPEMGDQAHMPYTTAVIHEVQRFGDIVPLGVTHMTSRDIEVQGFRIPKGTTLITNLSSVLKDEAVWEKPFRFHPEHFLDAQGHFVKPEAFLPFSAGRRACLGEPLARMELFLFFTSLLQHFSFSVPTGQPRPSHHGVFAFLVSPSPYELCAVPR
structure (smiles),measurement,setting,value
Cc1ccc(CNc2ccc3c(c2)nc(C)n3C)cc1,EC50,[1],> 350 µM (not active)
same,EC50,[2],34.6 µM (active)
CN(C)C=O.O=C(COc1cccc(Cl)c1)Nc1nc(-c2ccc(S(=O)(=O)N3CCOCC3)cc2)cs1,IC50,[3],4.49 µM (active)
same,IC50,[4],5.53 µM (active)
CCn1c(SCC(=O)Nc2ncc(C(F)(F)F)cc2Cl)nnc1-c1ccccc1,IC50,[3],5.96 µM (active)
same,IC50,[4],4.08 µM (active)
O=C(O)C1CC=CCC1C(=O)Nc1cccc(F)c1 (stereo not given),IC50,[5],14.6 µM (active)
O=C(NCCCN1CCN(c2ccccc2F)CC1)Nc1ccccc1[N+](=O)[O-],EC50,[1],> 350 µM (not active)
same,EC50,[2],> 350 µM (not active)
COc1ccc(SC[C@H](Cc2ccccc2)N2CCN(C)CCC2=O)cc1,EC50,[6],1.33 µM (active)
CC(C)=CC(=O)OC1C2C(C)C(=O)OC2C(O)C(C)C2C=CC(=O)C21C (stereo not given),GI50,[7],0.615 µM (active)
same,GI50,[8],2.39 µM (inactive)
same,GI50,[9],0.627 µM (active)
CC(C)CCCCCCCCCCCCC(=O)NCC(=O)NC1C(C)OC(Nc2ncnc3c2ncn3C)C(O)C1O (stereo not given),GI50,[7],> 100 µM (inactive)
same,GI50,[8],7.66 µM (inactive)
same,GI50,[9],6.03 µM (inactive)
CN1OC(=O)N(C)C1c1ccccc1 (stereo not given),GI50,[7],> 100 µM (inactive)
same,GI50,[8],> 100 µM (inactive)
same,GI50,[9],> 100 µM (inactive)
CCCCOC(=O)NS(=O)(=O)c1sc(CC(C)C)cc1-c1ccc(Cn2c(CC)nc3c(C)cc(C)nc32)cc1,CC50,[10],20.3 µM (active)
same,AC50,[11]; read-out: AC50,15.8 µM (inconclusive)
same,AC50,[12],15.8 µM (inconclusive)
O=C(Cn1nc2ccccc2n1)N/N=C/c1cc(Cl)cc([N+](=O)[O-])c1O,IC50,[13],45.2 µM (active)
same,IC50,[3],8.31 µM (active)
same,IC50,[4],6.5 µM (active)
Oc1ccc(/C=N/NC(=S)NC2CC3CCC2C3)cc1 (stereo not given),EC50,[1],> 350 µM (not active)
same,EC50,[2],> 350 µM (not active)
O=C(O)c1ccc(N/N=C/c2ccc(-c3cccc(Cl)c3)o2)cc1,EC50,[14],3.86 µM (active)
same,EC50,[15],10.7 µM (active)
same,EC50,[6],4.73 µM (active)
same,AC50,[16],8 µM (active)
CC1=NNC(=O)C1CCC(=O)N/N=C/c1ccc(Cl)cc1 (stereo not given),IC50,[5],52.6 µM (active)
O=c1cc(CSc2ccccc2)[nH]c(=S)[nH]1,IC50,[5],12.5 µM (active)
same,AC50,[11],inconclusive
same,AC50,[17],28.2 µM (inconclusive)
